Measurements taken from patent US12421240B2, “Hydropyrazino[1,2-d][1,4]diazepine compounds for the treatment of autoimmune disease” (Hoffmann-La Roche Inc., priority 2019, dated 2025).

These compounds were tested against T1, human TLR9 (Homo sapiens, UniProt Q9NR96) (assay: HEK293-Blue-hTLR-9 cells assay (SEAP reporter, ODN2006 stimulation)). Settings: HEK293-Blue-hTLR9 cells, ODN2006 ligand, 20 hrs; read-out: HEK/hTLR9 IC50.
T1 sequence (Q9NR96 26-1032): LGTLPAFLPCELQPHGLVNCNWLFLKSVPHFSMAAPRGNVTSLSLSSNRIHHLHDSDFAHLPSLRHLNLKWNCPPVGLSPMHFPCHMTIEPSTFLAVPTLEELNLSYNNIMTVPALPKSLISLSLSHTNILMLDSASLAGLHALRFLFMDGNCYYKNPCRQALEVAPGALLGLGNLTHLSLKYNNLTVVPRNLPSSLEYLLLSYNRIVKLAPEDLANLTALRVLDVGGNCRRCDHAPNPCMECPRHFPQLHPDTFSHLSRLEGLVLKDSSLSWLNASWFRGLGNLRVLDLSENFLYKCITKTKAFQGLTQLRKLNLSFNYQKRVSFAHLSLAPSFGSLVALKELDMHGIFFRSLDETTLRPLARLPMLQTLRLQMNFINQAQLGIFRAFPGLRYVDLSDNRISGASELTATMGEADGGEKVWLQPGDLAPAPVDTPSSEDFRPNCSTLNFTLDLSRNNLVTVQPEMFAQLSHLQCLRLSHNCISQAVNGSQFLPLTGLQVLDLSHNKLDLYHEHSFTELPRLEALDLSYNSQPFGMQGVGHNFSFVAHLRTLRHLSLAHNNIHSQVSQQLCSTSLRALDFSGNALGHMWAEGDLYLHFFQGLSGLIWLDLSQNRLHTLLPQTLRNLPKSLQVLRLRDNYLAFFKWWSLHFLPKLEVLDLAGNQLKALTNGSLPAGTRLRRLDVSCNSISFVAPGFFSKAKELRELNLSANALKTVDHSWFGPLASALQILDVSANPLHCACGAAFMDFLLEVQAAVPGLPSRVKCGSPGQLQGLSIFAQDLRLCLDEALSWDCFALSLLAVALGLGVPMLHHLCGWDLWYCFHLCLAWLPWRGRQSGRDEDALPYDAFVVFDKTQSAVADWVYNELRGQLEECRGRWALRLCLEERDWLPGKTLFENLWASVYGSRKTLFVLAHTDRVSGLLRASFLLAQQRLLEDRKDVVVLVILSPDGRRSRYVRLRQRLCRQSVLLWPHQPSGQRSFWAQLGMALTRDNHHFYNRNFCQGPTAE
Format: cell-based
Procedure: The following tests were carried out in order to determine the activity of the compounds of formula (I), (Ia) or (Ib) in HEK293-Blue-hTLR-7/8/9 cells assay.
HEK293-Blue-hTLR-9 Cells Assay:
A stable HEK293-Blue-hTLR-9 cell line was purchased from InvivoGen (Cat. #: hkb-htlr9, San Diego, California, USA). These cells were originally designed for studying the stimulation of human TLR9 by monitoring the activation of NF-κB. A SEAP (secreted embryonic alkaline phosphatase) reporter gene was placed under the control of the IFN-β minimal promoter fused to five NF-κB and AP-1-binding sites. The SEAP was induced by activating NF-κB and AP-1 via stimulating HEK-Blue hTLR9 cells with TLR9 ligands. Therefore the reporter expression was declined by TLR9 antagonist under the stimulation of a ligand, such as ODN2006 (Cat. #: tlrl-2006-1, Invivogen, San Diego, California, USA), for incubation of 20 hrs. The cell culture supernatant SEAP reporter activity was determined using QUANTI-Blue™ kit (Cat. #: rep-qb1, Invivogen, San Diego, California, USA) at a wavelength of 640 nm, a detection medium that turns purple or blue in the presence of alkaline phosphatase.
HEK293-Blue-hTLR9 cells were incubated at a density of 250,000˜450,000 cells/mL in a volume of 170 μL in a 96-well plate in Dulbecco's Modified Eagle's medium (DMEM) containing 4.5 g/L glucose, 50 U/mL penicillin, […], 2 mM L-glutamine, 10% (v/v) heat-inactivated fetal bovine serum with addition of 20 μL test compound in a serial dilution in the presence of final DMSO at 1% and 10 μL of 20 uM ODN2006 in above DMEM, perform incubation under 37° C. in a CO2 incubator for 20 hrs. Then 20 μL of the supernatant from each well was incubated with 180 μL Quanti-blue substrate solution at 37° C. for 2 h and the absorbance was read at 620-655 nm using a spectrophotometer. The signaling pathway that TLR9 activation leads to downstream NF-κB activation has been widely accepted, and therefore similar reporter assay was modified for evaluating TLR9 antagonist.

| SMILES | IC50 [nM] |
| --- | --- |
| C[C@@H]1CN(c2ccc(C#N)c3ncccc23)C[C@@H]2CCN(Cc3cncc(N4CCNCC4)c3)CCN21 [Example 16, 5-[(4R,10aS)-4-methyl-8-[(5-piperazin-1-yl-3-pyridyl)methyl]-1,3,4,6,7,9,10,10a-octahydropyrazino[1,2-d][1,4]diazepin-2-yl]quinoline-8-carbonitrile] | 35.4 |
| C[C@@H]1CN(c2ccc(C#N)c3ncccc23)C[C@@H]2CCN(c3ccc([C@H]4CNCCO4)cc3)CCN21 [Example 3, 5-[(4R,10aS)-4-methyl-8-[4-[(2S)-morpholin-2-yl]phenyl]-1,3,4,6,7,9,10,10a-octahydropyrazino[1,2-d][1,4]diazepin-2-yl]quinoline-8-carbonitrile] | 52 |
| C[C@@H]1CN(c2ccc(C#N)c3ncccc23)C[C@@H]2CCN(Cc3ccc(N4CCNCC4)cn3)CCN21 [Example 19, 5-[(4R,10aS)-4-methyl-8-[(5-piperazin-1-yl-2-pyridyl)methyl]-1,3,4,6,7,9,10,10a-octahydropyrazino[1,2-d][1,4]diazepin-2-yl]quinoline-8-carbonitrile] | 45.8 |
| C[C@@H]1CN(c2cc(=O)n(C)c3ncccc23)C[C@@H]2CCN(Cc3ccc4c(c3)CNCC4)CCN21 [Example 28, 4-[(4R,10aS)-4-methyl-8-(1,2,3,4-tetrahydroisoquinolin-7-ylmethyl)-1,3,4,6,7,9,10,10a-octahydropyrazino[1,2-d][1,4]diazepin-2-yl]-1-methyl-1,8-naphthyridin-2-one] | < 31.8 |
| C[C@@H]1CN(c2ccc(C#N)c3ncccc23)C[C@@H]2CCN(Cc3cnc(N4CCNCC4)nc3)CCN21 [Example 14, 5-[(4R,10aS)-4-methyl-8-[(2-piperazin-1-ylpyrimidin-5-yl)methyl]-1,3,4,6,7,9,10,10a-octahydropyrazino[1,2-d][1,4]diazepin-2-yl]quinoline-8-carbonitrile] | 70.5 |
| C[C@@H]1CN(c2ccc(C#N)c3ncccc23)C[C@@H]2CCN(Cc3ccc(N4CCNCC4)nc3)CCN21 [Example 17, 5-[(4R,10aS)-4-methyl-8-[(6-piperazin-1-yl-3-pyridyl)methyl]-1,3,4,6,7,9,10,10a-octahydropyrazino[1,2-d][1,4]diazepin-2-yl]quinoline-8-carbonitrile] | < 31.8 |
| C[C@@H]1CN(c2ccc(C#N)c3ncccc23)C[C@@H]2CCN(c3cc4c(cn3)CNCC4)CCN21 [Example 7, 5-[(4R,10aS)-4-methyl-8-(5,6,7,8-tetrahydro-2,7-naphthyridin-3-yl)-1,3,4,6,7,9,10,10a-octahydropyrazino[1,2-d][1,4]diazepin-2-yl]quinoline-8-carbonitrile] | 81.9 |
| C[C@@H]1CN(c2ccc(C#N)c3ncccc23)C[C@@H]2CCN(Cc3ccc(N4CCOC[C@H](N)C4)cn3)CCN21 [Example 21, 5-[(4R,10aS)-8-[[5-[(6R)-6-amino-1,4-oxazepan-4-yl]-2-pyridyl]methyl]-4-methyl-1,3,4,6,7,9,10,10a-octahydropyrazino[1,2-d][1,4]diazepin-2-yl]quinoline-8-carbonitrile] | 105 |
| C[C@@H]1CN(c2ccc(C#N)c3ncccc23)C[C@@H]2CCN(Cc3ccc4c(c3)CCNC4)CCN21 [Example 11, 5-[(4R,10aS)-4-methyl-8-(1,2,3,4-tetrahydroisoquinolin-6-ylmethyl)-1,3,4,6,7,9,10,10a-octahydropyrazino[1,2-d][1,4]diazepin-2-yl]quinoline-8-carbonitrile] | 48.7 |
